Data from US20020007079A1, “MEIOSIS REGULATING COMPOUNDS” (priority 1998, published 2002).

Experiments:
oocytes [1] = experiment: agonistic oocyte assay (germinal vesicle breakdown); type: cell-based, mice; details: for relative GVB (relative effect): indexed against control (0) and FF-MAS (100); for GVB (percentage of oocytes undergoing germinal vesicle breakdown): oocytes cultured 24 hours at 37° C. in Hx-medium (3 mM hypoxanthine)
Method: An agonistic oocyte assay can be performed as follows:
Oocytes were obtained from immature female mice (C57BL/6J×DBA/2J F1, Bomholtgaard, Denmark) weighing 13-16 grams, that were kept under controlled temperature (20-22° C.), light (lights on 06.00-18.00) and relative humidity (50-70%). The mice received an intra-peritoneal injection of 0.2 ml gonadotropins (Gonal-F, Serono) containing 20 IU FSH and 48 hours later the animals were killed by cervical dislocation.
The ovaries were dissected out and the oocytes were isolated in Hx-medium (see below) under a stereo microscope by manual rupture of the follicles using a pair of 27 gauge needles. Spherical oocytes displaying an intact germinal vesicle (hereinafter designated GV) were divided in cumulus enclosed oocytes (hereinafter designated CEO) and naked oocytes (hereinafter designated NO) and placed in a-minimum essential medium (α-MEM without ribonucleosides, Gibco BRL, Cat. No. 22561) supplemented with 3 mg/ml bovine serum albumin (BSA, Sigma Cat. No. A-7030), 5 mg/ml human serum albumin (HSA, Statens Seruminstitute, Denmark), 0.23 mM pyruvate (Sigma, Cat. No S-8636), 2 mM glutamine (Flow Cat. No. 16-801), 100 IU/ml penicillin and 100 μg/ml streptomycin (Flow, Cat No. 16-700). This medium was supplemented with 3 mM hypoxanthine (Sigma Cat. No. H-9377) and designated Hx-medium.
The oocytes were rinsed three times in Hx-medium and oocytes of uniform size were divided into groups of CEO and NO. CEO and NO were cultured in 4-well multidishes (Nunclon, Denmark) in which each well contained 0.4 ml of Hx-medium. One control well (i.e., 35-45 oocytes cultured in identical medium with no addition of test compound) was always cultured simultaneously with 3 test wells (35-45 oocytes per well supplemented with test compound).
The oocytes were cultured in a humidified atmosphere of 5% CO2 in air for 24 hours at 37° C. By the end of the culture period, the number of oocytes with germinal vesicle (hereinafter designated GV), germinal vesicle breakdown (hereinafter designated GVB) and polar bodies (hereinafter designated PB), respectively, were counted using a stereomicroscope (Wildt, Leica MZ 12). The percentage GVB, defined as percentage of oocytes undergoing GVB per total number of oocytes in that well, was calculated as:
% GVB=(number of GVB+number of PB/total number oocytes)×100.
The % PB was defined as percentage of oocytes displaying one extruded polar body per total number of oocytes in that well.
The effect of the tested compounds has been indexed against control level and 4,4-5 dimethyl-5β-cholesta-8,14,24-trien-39-ol (hereinafter designated FF-MAS) where controls and FF-MAS are indexed to an effect of 0 and 100, respectively. The relative effect of the tested compound is calculated as follows: […]

naked oocytes (NO) [2] = experiment: antagonistic oocyte assay (co-culture with FF-MAS); type: cell-based, mice; details: naked oocytes in Hx-medium with 5 μM FF-MAS in co-culture with test compound
Method: An antagonistic oocyte assay can be performed as follows:
20 Oocytes were obtained from immature female mice (C57BI/6J×DBA/2J F1-hybrids, Bomholtgaard, Denmark) weighing 13-16 grams, that were kept under controlled lighting and temperature. The mice received an intra-peritoneal injection of 0.2 ml gonadotropins (Gonal F, Serono, Solna, Sweden, containing 20 IU FSH, alternatively, Puregon, Organon, Swords, Ireland containing 20 IU FSH) and 48 hours later the animals were killed by cervical dislocation.
The ovaries were dissected out and the oocytes were isolated in Hx-medium (see below) under a stereo microscope by manual rupture of the follicles using a pair of 27 gauge needles. […]
By the end of the culture period, the number of oocytes with germinal vesicle (GV) or germinal vesicle breakdown (GVB) and those with polar body (PB) was counted using a stereo-microscope or an inverted microscope with differential interference contrast equipment. The percentage of oocytes with GVB+PB per total number of oocytes were calculated in the test cultures and in the control (positive and negative) culture groups. The relative inhibition of the test compound was calculated by the following formula: […]

oocytes [3] = experiment: in vitro fertilization (IVF) assay; type: cell-based, mice; details: GVB oocytes after 18 hours culture, examined 20-22 hours after insemination; control 22%
Method: An in vitro fertilization (IVF) assay can be performed as follows:
Naked oocytes (NO) and cumulus enclosed oocytes (CEO) from immature mice (C57B1 16J×DBAJ/2)F, were isolated and cultured under the same conditions as described for the agonistic oocyte assay (Example 5). […] The dishes were then incubated under defined gas conditions (5% CO2) at 37° C. in a modified (α-MEM IVF-medium. Neither the insemination medium nor the IVF-medium contained hypoxanthine. Examination of the oocytes was carried out 20-22 hours after insemination, in order to check fertilization and to record the number of 2-cell embryos. The percentage fertilization (=fertilization rate) was determined from counts of oocytes that had cleaved into two-cell embryos.

naked oocytes (NO) [4] = details: previously shown, Byskov et al. Nature 374 (1995), 559-562; cited from earlier work

Row | Compound | relative GVB (relative effect) (oocytes [1]) | GVB (percentage of oocytes undergoing germinal vesicle breakdown) (oocytes [1]) | PB (oocytes with polar body) (naked oocytes (NO) [2]) | fertilization rate (oocytes cleaved into two-cell embryos) (oocytes [3]) | melting point | induction of meiosis in NO in vitro (naked oocytes (NO) [4])
1 | (25R)-160.26-Dihydroxycholest-5-ene [Example 4] | 73% | 63% | 5% | – | – | –
2 | CC(C)CCC[C@@H](C)[C@H]1[C@@H](O)C[C@H]2[C@@H]3CC=C4CCCC[C@]4(C)[C@H]3CC[C@]12C [Example 1, 16β-Hydroxycholest-5-ene] | 88% | 72% | – | 62% | 107 to 108 °C | –
3 | CC(C)=CCC[C@@H](C)[C@H]1CC=C2C3=C(CC[C@@]21C)[C@@]1(C)CC[C@H](O)C(C)(C)[C@@H]1CC3 [FF-MAS, 4,4-Dimethyl-5α-cholesta-8,14,24-trien-3β-ol] | – | – | – | – | – | induce meiosis
